Tested on: Jurkat T-Cells (E6-1 from ATCC)
Assay: In vitro T-cell activation/inhibition assay (anti-CD3/anti-CD28 stimulation, IL-2 ELISA)
Assay type: cell-based, human
Details: 37° C., CHP 100 μM with gelatin 0.5 mg/mL
Protocol: A particular in vitro activation assay was carried out to evaluate the effects that the anti-inflammatory bioactive LAIR-1 CHPs have on T-cells. Details regarding the experimental conditions for the T-cell assay with Jukat T-cells are depicted in FIG. 13. As shown, Jukat T-cells were incubated with activating antibodies against CD3 and CD28 receptors to initiate activation. […] T-cell activation was then assessed by ELISA for IL-2 secretion in media supernatant. Activated T-cells express high levels of IL-2.
Secreted IL-2 was measured for the following conditions: negative control which were unactivated T cells; positive control T cells which received anti-CD3 and anti-CD28 antibodies; positive control t cells which received stimulating antibodies in the presence of soluble gelatin; and the CHP test condition which received stimulating antibodies in the presence of LAIR1-CHPs.
For the T-cell activation/inhibition experimental protocol, three monomeric CHPs (LAIR-1 HTm CHP1 [SEQ ID NO: 87, wherein x=4 and y=4], LAIR-1 HTm CHP2 [SEQ ID NO: 2, wherein x=4 and y=4], and LAIR-1 HTm CHP3 [SEQ ID NO: 106]) were tested for T-cell activation/inhibition. First, CHPs were incubated with the gelatin under test conditions for at least 24 hours at 37° C. The final gelatin concentration in the media for incubation was 0.5 mg/mL. […]

How did the “effect on IL 2 production compared to the gelatin positive control” value (72 hours post-stimulation) turn out when Biotin-GGG-(GPO)9 [LAIR-1 HTm CHP3] was run?
Its value is “did not have an effect”.

What about the “effect on IL 2 production compared to the gelatin positive control” value (96 hours post-stimulation) of the same substance?
Its value is “did not have an effect”.

From patent US20260234215A1, “Anti-Inflammatory Bio-Active Collagen Hybridizing Peptides and Methods of Using Thereof” (3HELIX, INC., priority 2023, published 2026)
